According to patent US10071968B2 (priority 2014, dated 2018):

Biological target: human σ1 receptor (Homo sapiens, UniProt Q99720)
Experiment: Human σ1 receptor radioligand assay ([3H](+)-pentazocine, transfected HEK-293 membranes)
Assay type: binding
Parameters: μ and σ1 dual binding: key to the marks not given beside the values
Conditions: one combined class for Ki-σ1 (A1) and Ki-μ (human μ-opioid receptor, A2); for Ki: read-out: μ and σ1 dual binding
Procedure: To investigate binding properties of test compounds to human σ1 receptor, transfected HEK-293 membranes and [^3H](+)-pentazocine (Perkin Elmer, NET-1056), as the radioligand, were used. The assay was carried out with 7 μg of membrane suspension, 5 nM of [^3H](+)-pentazocine in either absence or presence of either buffer or 10 μM Haloperidol for total and non-specific binding, respectively. Binding buffer contained Tris-HCl 50 mM at pH 8. Plates were incubated at 37° C. for 120 minutes. After the incubation period, the reaction mix was then transferred to MultiScreen HTS, FC plates (Millipore), filtered and plates were washed 3 times with ice-cold 10 mM Tris-HCL (pH7.4). Filters were dried and counted at approximately 40% efficiency in a MicroBeta scintillation counter (Perkin-Elmer) using EcoScint liquid scintillation cocktail

human σ1 receptor, sequence (Q99720 whole entry): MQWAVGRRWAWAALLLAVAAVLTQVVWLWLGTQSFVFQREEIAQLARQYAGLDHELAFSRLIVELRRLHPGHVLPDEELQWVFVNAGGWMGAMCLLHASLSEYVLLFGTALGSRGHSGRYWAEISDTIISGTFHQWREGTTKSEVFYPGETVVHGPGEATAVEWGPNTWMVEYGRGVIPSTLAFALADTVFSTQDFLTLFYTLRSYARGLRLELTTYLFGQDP

CN(CCOC(c1ccccc1O)c1ccnn1C)Cc1ccccc1 (stereo not shown) [Example 52, 2-((2-(benzyl(methyl)amino)ethoxy)(1-methyl-1H-pyrazol-5-yl)methyl)phenol]
Ki: < 500 nM

CN(CCOC(c1cncs1)c1ccnn1C)Cc1cccc(F)c1 (stereo not shown) [Example 49, N-(3-fluorobenzyl)-N-methyl-2-((1-methyl-1H-pyrazol-5-yl)(thiazol-5-yl)methoxy)ethanamine]
μ and σ1 dual binding: ++

COc1cccc(CN(C)CCOC(c2ccccc2)c2ccnn2C)c1 (stereo not shown) [Example 23, N-(3-methoxybenzyl)-N-methyl-2-((1-methyl-1H-pyrazol-5-yl)(phenyl)methoxy)ethanamine]
μ and σ1 dual binding: ++

CN(CCO[C@@H](c1ccccc1)c1ccnn1C)CCc1ccccc1 [Example 19, (S)-N-methyl-2-((1-methyl-1H-pyrazol-5-yl)(phenyl)methoxy)-N-phenethylethanamine]
Ki: < 500 nM

CN(CCO[C@H](c1ccccc1)c1ccnn1C)Cc1ccc(F)cc1 [Example 10, (R)-N-(4-fluorobenzyl)-N-methyl-2-((1-methyl-1H-pyrazol-5-yl)(phenyl)methoxy)ethanamine]
μ and σ1 dual binding: ++

CN(CCOC(c1cncs1)c1ccnn1C)Cc1ccccc1 (stereo not shown) [Example 41, N-benzyl-N-methyl-2-((1-methyl-1H-pyrazol-5-yl)(thiazol-5-yl)methoxy)ethanamine]
Ki: > 500 nM

CN(CCOC(c1ccc(O)cc1)c1ccnn1C)Cc1ccccc1 (stereo not shown) [Example 51, 4-((2-(benzyl(methyl)amino)ethoxy)(1-methyl-1H-pyrazol-5-yl)methyl)phenol]
μ and σ1 dual binding: ++

CN(CC[S+]([O-])C(c1ccccc1)c1ccnn1C)Cc1ccccc1 (stereo not shown) [Example 34, N-Benzyl-N-methyl-2-((1-methyl-1H-pyrazol-5-yl)(phenyl)methylsulfinyl)ethanamine]
Ki: > 500 nM

CN(CCOC(c1ccccn1)c1ccnn1C)Cc1ccccc1 (stereo not shown) [Example 40, N-benzyl-N-methyl-2-((1-methyl-1H-pyrazol-5-yl)(pyridin-2-yl)methoxy)ethanamine]
Ki: > 500 nM

CN(CCO[C@H](c1ccccc1)c1ccnn1C)CCc1ccccc1 [Example 11, (R)-N-methyl-2-((1-methyl-1H-pyrazol-5-yl)(phenyl)methoxy)-N-phenethylethanamine]
μ and σ1 dual binding: ++

CN(CCO[C@H](c1ccccc1)c1ccnn1C)Cc1ccccc1 [Example 9, (R)-N-benzyl-N-methyl-2-((1-methyl-1H-pyrazol-5-yl)(phenyl)methoxy)ethanamine]
μ and σ1 dual binding: ++

COc1ccccc1C(OCCN(C)Cc1ccccc1)c1ccnn1C (stereo not shown) [Example 39, N-benzyl-2-((2-methoxyphenyl)(1-methyl-1H-pyrazol-5-yl)methoxy)-N-methylethanamine]
μ and σ1 dual binding: ++

CC(C)N(CCOC(c1ccccc1)c1ccnn1C)Cc1cccc(F)c1 (stereo not shown) [Example 29, N-(3-fluorobenzyl)-N-(2-((1-methyl-1H-pyrazol-5-yl)(phenyl)methoxy)ethyl)propan-2-amine]
μ and σ1 dual binding: ++

CN(CCOC(c1ccccc1)c1ccnn1C)CCc1ccccc1 (stereo not shown) [Example 7, N-methyl-2-((1-methyl-1H-pyrazol-5-yl)(phenyl)methoxy)-N-phenethylethanamine]
Ki: < 500 nM

CN(CCOC(c1cccnc1)c1ccnn1C)Cc1cccc(F)c1 (stereo not shown) [Example 46, N-(3-fluorobenzyl)-N-methyl-2-((1-methyl-1H-pyrazol-5-yl)(pyridin-3-yl)methoxy)ethanamine]
μ and σ1 dual binding: ++

Cc1ccsc1[C@@H](OCCN(C)Cc1ccccc1)c1ccnn1C [Example 30, (S)-N-benzyl-N-methyl-2-((1-methyl-1H-pyrazol-5-yl)(3-methylthiophen-2-yl)methoxy)ethanamine]
μ and σ1 dual binding: ++

CN(CCOC(c1ccccc1)c1ccnn1C)Cc1ccc(C(F)(F)F)nc1 (stereo not shown) [Example 3, N-methyl-2-((1-methyl-1H-pyrazol-5-yl)(phenyl)methoxy)-N-((6-(trifluoromethyl)pyridin-3-yl)methyl)ethanamine]
Ki: > 500 nM

COc1ccccc1C(OCCN(C)Cc1cccc(F)c1)c1ccnn1C (stereo not shown) [Example 48, N-(3-fluorobenzyl)-2-((2-methoxyphenyl)(1-methyl-1H-pyrazol-5-yl)methoxy)-N-methylethanamine]
μ and σ1 dual binding: ++

CN(CCSC(c1ccccc1)c1ccnn1C)Cc1ccccc1 (stereo not shown) [Example 33, N-benzyl-N-methyl-2-((1-methyl-1H-pyrazol-5-yl)(phenyl)methylthio)ethanamine]
Ki: < 500 nM

CC(c1ccccc1)N(C)CCOC(c1ccccc1)c1ccnn1C (stereo not shown) [Example 16, N-methyl-2-((1-methyl-1H-pyrazol-5-yl)(phenyl)methoxy)-N-(1-phenylethyl)ethanamine]
μ and σ1 dual binding: ++

CC(C)N(CCOC(c1ccccc1)c1ccnn1C)Cc1ccccc1 (stereo not shown) [Example 27, N-benzyl-N-(2-((1-methyl-1H-pyrazol-5-yl)(phenyl)methoxy)ethyl)propan-2-amine]
μ and σ1 dual binding: ++

CN(CCOC(c1ccccc1)c1ccnn1C)Cc1ccc(F)cc1 (stereo not shown) [Example 8, N-(4-fluorobenzyl)-N-methyl-2-((1-methyl-1H-pyrazol-5-yl)(phenyl)methoxy)ethanamine]
μ and σ1 dual binding: ++
